According to ChEMBL document CHEMBL1201862, “PubChem BioAssay data set” (2004):
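Briefly, cells in 96-well plates were exposed to five compound concentrations for 48 h, and endpoints were estimated by linear interpolation. GI50 = concentration required for 50% inhibition of growth.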 Activity calls are given as the source filed them. Cut-off read from the data, not from the text of the source: active = GI50 up to about 1.1 µM and inactive = higher.

Tests used:
Test in all cases: NCI anticancer screen, dose series, 48 h
HCC 2998 = tested on: HCC 2998
CCRF-CEM = tested on: CCRF-CEM
A549 = tested on: A549
SK-MEL-5 = tested on: SK-MEL-5
HOP-62 = tested on: HOP-62
M14 = tested on: M14
LXFL 529 = tested on: LXFL 529
COLO 205 = tested on: COLO 205
SR = tested on: SR
SNB-75 = tested on: SNB-75
HOP-18 = tested on: HOP-18
UACC-62 = tested on: UACC-62
SN12C = tested on: SN12C
CAKI-1 = tested on: CAKI-1
HL-60 = tested on: HL-60
HOP-92 = tested on: HOP-92
A498 = tested on: A498
OVCAR-3 = tested on: OVCAR-3
OVCAR-4 = tested on: OVCAR-4
IGROV-1 = tested on: IGROV-1
SF-295 = tested on: SF-295
RXF 393 = tested on: RXF 393
UO-31 = tested on: UO-31
SK-OV-3 = tested on: SK-OV-3
SW-620 = tested on: SW-620
M19-MEL = tested on: M19-MEL
HT-29 = tested on: HT-29
SNB-78 = tested on: SNB-78
MOLT-4 = tested on: MOLT-4
DLD-1 = tested on: DLD-1
NCI-H23 = tested on: NCI-H23
UACC-257 = tested on: UACC-257
K562 = tested on: K562
OVCAR-8 = tested on: OVCAR-8
DMS-273 = tested on: DMS-273
RXF 631 = tested on: RXF 631
SF-268 = tested on: SF-268
NCI-H226 = tested on: NCI-H226
SF-539 = tested on: SF-539
RPMI-8226 = tested on: RPMI-8226
Malme-3M = tested on: Malme-3M
KM12 = tested on: KM12
LOX IMVI = tested on: LOX IMVI
OVCAR-5 = tested on: OVCAR-5
XF498 = tested on: XF498
HCT-15 = tested on: HCT-15
TK-10 = tested on: TK-10
NCI-H460 = tested on: NCI-H460
KM-20L2 = tested on: KM-20L2
EKVX = tested on: EKVX
DMS-114 = tested on: DMS-114
U-251 = tested on: U-251
786-0 = tested on: 786-0
NCI-H522 = tested on: NCI-H522
HCT-116 = tested on: HCT-116
SNB-19 = tested on: SNB-19
ACHN = tested on: ACHN
SK-MEL-2 = tested on: SK-MEL-2
SK-MEL-28 = tested on: SK-MEL-28

Measured: GI50

N#CC(Sc1ccccc1)C(N)=O (centres undefined)
inactive: HCC 2998 > 100 µM | CCRF-CEM > 100 µM | A549 > 100 µM | SK-MEL-5 > 100 µM | HOP-62 > 100 µM | M14 > 100 µM | LXFL 529 > 100 µM | COLO 205 > 100 µM | SR > 100 µM | SNB-75 > 100 µM | HOP-18 > 100 µM | UACC-62 > 100 µM | SN12C > 100 µM | CAKI-1 > 100 µM | HL-60 > 100 µM | HOP-92 > 100 µM | A498 > 100 µM | OVCAR-3 > 100 µM | OVCAR-4 > 100 µM | IGROV-1 > 100 µM | SF-295 > 100 µM | RXF 393 > 100 µM | UO-31 > 100 µM | SK-OV-3 > 100 µM | SW-620 > 100 µM | M19-MEL > 100 µM | HT-29 > 100 µM | SNB-78 > 100 µM | MOLT-4 > 100 µM | DLD-1 > 100 µM | NCI-H23 > 100 µM | UACC-257 > 100 µM | K562 > 100 µM | OVCAR-8 > 100 µM | DMS-273 > 100 µM | RXF 631 > 100 µM | SF-268 > 100 µM | NCI-H226 > 100 µM | SF-539 > 100 µM | RPMI-8226 > 100 µM | Malme-3M > 100 µM | KM12 > 100 µM | LOX IMVI > 100 µM | OVCAR-5 > 100 µM | XF498 > 100 µM | TK-10 > 100 µM | NCI-H460 > 10 µM | KM-20L2 > 100 µM | EKVX > 100 µM | DMS-114 > 100 µM | U-251 > 100 µM | 786-0 > 100 µM | NCI-H522 > 100 µM | HCT-116 > 100 µM | SNB-19 > 100 µM
> 100 µM: HCT-15

C/C=C/C1(NS(=O)(=O)c2ccc(C)cc2)CCC(C(C)(C)C)CC1 (centres undefined)
inactive: HCC 2998 16.2 µM | CCRF-CEM 19.5 µM | A549 40.7 µM | SK-MEL-5 17.5 µM | HOP-62 22 µM | M14 17.3 µM | LXFL 529 37.5 µM | COLO 205 20 µM | SR 13.6 µM | SNB-75 53.6 µM | HOP-18 34.9 µM | UACC-62 19 µM | SN12C 18.2 µM | CAKI-1 28.8 µM | HL-60 23.4 µM | HOP-92 19.7 µM | A498 24 µM | OVCAR-3 17.7 µM | OVCAR-4 23 µM | IGROV-1 28.8 µM | SF-295 26.2 µM | RXF 393 24.3 µM | UO-31 25.4 µM | SK-OV-3 27.4 µM | SW-620 26.1 µM | M19-MEL 19.7 µM | HT-29 18 µM | SNB-78 25.6 µM | MOLT-4 16.5 µM | DLD-1 35.8 µM | NCI-H23 18.8 µM | UACC-257 25.4 µM | K562 35.5 µM | OVCAR-8 36.1 µM | DMS-273 16 µM | RXF 631 24.7 µM | SF-268 29.6 µM | NCI-H226 20.6 µM | SF-539 21.4 µM | RPMI-8226 21.6 µM | Malme-3M 22.2 µM | ACHN 36.2 µM | KM12 20.8 µM | OVCAR-5 20.7 µM | XF498 20.2 µM | TK-10 35.8 µM | NCI-H460 21.7 µM | KM-20L2 20.1 µM | EKVX 23 µM | SK-MEL-2 17.3 µM | DMS-114 27 µM | U-251 16.1 µM | 786-0 19 µM | NCI-H522 11.6 µM | HCT-116 20.1 µM | SNB-19 42.2 µM
28.6 µM: HCT-15

N#CCCN(c1ccc(/C=N/c2ccccc2Cl)cc1)S(=O)(=O)c1ccccc1
inactive: HCC 2998 > 100 µM | A549 > 100 µM | SK-MEL-5 > 100 µM | HOP-62 > 100 µM | M14 > 100 µM | LXFL 529 > 100 µM | COLO 205 > 100 µM | SR > 100 µM | SNB-75 > 100 µM | HOP-18 > 100 µM | UACC-62 > 100 µM | SN12C > 100 µM | CAKI-1 > 100 µM | SK-MEL-28 > 100 µM | HL-60 > 100 µM | HOP-92 > 100 µM | A498 > 100 µM | OVCAR-3 > 100 µM | OVCAR-4 > 100 µM | IGROV-1 > 100 µM | SF-295 > 100 µM | RXF 393 > 100 µM | UO-31 > 100 µM | SK-OV-3 > 100 µM | SW-620 > 100 µM | M19-MEL > 100 µM | HT-29 > 100 µM | SNB-78 > 100 µM | MOLT-4 > 100 µM | DLD-1 > 100 µM | NCI-H23 > 100 µM | UACC-257 > 100 µM | K562 > 100 µM | OVCAR-8 > 100 µM | DMS-273 > 100 µM | RXF 631 > 100 µM | SF-268 > 100 µM | NCI-H226 > 100 µM | SF-539 > 100 µM | RPMI-8226 > 100 µM | Malme-3M > 100 µM | ACHN > 100 µM | KM12 > 100 µM | LOX IMVI > 100 µM | OVCAR-5 > 100 µM | XF498 > 100 µM | TK-10 > 100 µM | NCI-H460 > 100 µM | KM-20L2 > 100 µM | EKVX > 100 µM | SK-MEL-2 > 100 µM | DMS-114 > 100 µM | U-251 > 100 µM | 786-0 > 100 µM | NCI-H522 > 100 µM | HCT-116 > 100 µM | SNB-19 > 100 µM
> 100 µM: HCT-15

CCCCN(CCCC)CC(C(=O)Nc1ccc([N+](=O)[O-])cc1[N+](=O)[O-])/C(C)=N\NC(=O)C[N+](C)(C)C (centres undefined)
46.8 µM: HCT-15
inactive: HCC 2998 > 100 µM | CCRF-CEM 41.8 µM | A549 > 100 µM | SK-MEL-5 > 100 µM | HOP-62 > 100 µM | M14 > 100 µM | LXFL 529 74 µM | COLO 205 35.7 µM | SR 25.1 µM | SNB-75 29 µM | HOP-18 78.9 µM | UACC-62 > 100 µM | SN12C > 100 µM | CAKI-1 42.7 µM | SK-MEL-28 > 100 µM | HL-60 > 100 µM | HOP-92 33 µM | A498 52.7 µM | OVCAR-3 > 100 µM | OVCAR-4 > 100 µM | IGROV-1 > 100 µM | SF-295 > 100 µM | RXF 393 92.7 µM | UO-31 66.5 µM | SK-OV-3 > 100 µM | M19-MEL > 100 µM | HT-29 75.9 µM | SNB-78 97.7 µM | MOLT-4 > 100 µM | DLD-1 69.3 µM | NCI-H23 > 100 µM | UACC-257 > 100 µM | K562 28.8 µM | OVCAR-8 > 100 µM | DMS-273 15.9 µM | RXF 631 69.2 µM | SF-268 > 100 µM | NCI-H226 > 100 µM | SF-539 > 100 µM | RPMI-8226 27.7 µM | Malme-3M > 100 µM | ACHN > 100 µM | KM12 > 100 µM | LOX IMVI 33.3 µM | OVCAR-5 > 100 µM | XF498 39.3 µM | TK-10 > 100 µM | NCI-H460 55.7 µM | KM-20L2 > 100 µM | EKVX 30.3 µM | SK-MEL-2 > 100 µM | DMS-114 31.6 µM | U-251 > 100 µM | 786-0 > 100 µM | NCI-H522 41.9 µM | HCT-116 69.5 µM | SNB-19 > 100 µM
